From ChEMBL document CHEMBL4725412, “Augmenting the Activity of Macrolide Adjuvants against Acinetobacter baumannii” (2020)

How the values were obtained:
Assay type in all cases: functional
[1] = tested on: Acinetobacter baumannii; assay: Antibacterial activity against Acinetobacter baumannii 5001 assessed as reduction in microbial growth incubated for 16 hrs by broth microdilution method
[2] = tested on: Acinetobacter baumannii; assay: Antibacterial activity against Acinetobacter baumannii 4448 assessed as reduction in microbial growth incubated for 16 hrs by broth microdilution method
[3] = tested on: Acinetobacter baumannii; assay: Antibacterial activity against Acinetobacter baumannii 5256 assessed as reduction in microbial growth incubated for 16 hrs by broth microdilution method
[4] = tested on: Acinetobacter baumannii; assay: Potentiation of clarithromycin-induced antibacterial activity against Acinetobacter baumannii 4991 assessed as fold reduction in clarithromycin MIC at 7.5 uM incubated for 16 hrs by broth microdilution method
[5] = tested on: Acinetobacter baumannii; assay: Potentiation of clarithromycin-induced antibacterial activity against Acinetobacter baumannii 4857 assessed as fold reduction in clarithromycin MIC at 7.5 uM incubated for 16 hrs by broth microdilution method
[6] = tested on: Acinetobacter baumannii; assay: Potentiation of clarithromycin-induced antibacterial activity against Acinetobacter baumannii 4026 assessed as fold reduction in clarithromycin MIC at 7.5 uM incubated for 16 hrs by broth microdilution method
[7] = tested on: Acinetobacter baumannii; assay: Potentiation of clarithromycin-induced antibacterial activity against Acinetobacter baumannii 4456 assessed as fold reduction in clarithromycin MIC at 7.5 uM incubated for 16 hrs by broth microdilution method
[8] = tested on: Acinetobacter baumannii; assay: Antibacterial activity against Acinetobacter baumannii AB5075 assessed as reduction in microbial growth incubated for 16 hrs by broth microdilution method
[9] = tested on: Acinetobacter baumannii; assay: Potentiation of clarithromycin-induced antibacterial activity against Acinetobacter baumannii 4490 assessed as fold reduction in clarithromycin MIC at 7.5 uM incubated for 16 hrs by broth microdilution method
[10] = tested on: Acinetobacter baumannii; assay: Potentiation of clarithromycin-induced antibacterial activity against Acinetobacter baumannii 4957 assessed as fold reduction in clarithromycin MIC at 7.5 uM incubated for 16 hrs by broth microdilution method
[11] = tested on: Acinetobacter baumannii; assay: Potentiation of clarithromycin-induced antibacterial activity against Acinetobacter baumannii 5197 assessed as fold reduction in clarithromycin MIC at 7.5 uM incubated for 16 hrs by broth microdilution method
[12] = tested on: Acinetobacter baumannii; assay: Antibacterial activity against Acinetobacter baumannii 4795 assessed as reduction in microbial growth incubated for 16 hrs by broth microdilution method
[13] = tested on: Acinetobacter baumannii; assay: Antibacterial activity against Acinetobacter baumannii 4025 assessed as reduction in microbial growth incubated for 16 hrs by broth microdilution method
[14] = tested on: Acinetobacter baumannii; assay: Potentiation of clarithromycin-induced antibacterial activity against Acinetobacter baumannii 3560 assessed as fold reduction in clarithromycin MIC at 7.5 uM incubated for 16 hrs by broth microdilution method
[15] = tested on: Acinetobacter baumannii; assay: Potentiation of clarithromycin-induced antibacterial activity against Acinetobacter baumannii 4878 assessed as fold reduction in clarithromycin MIC at 7.5 uM incubated for 16 hrs by broth microdilution method
[16] = tested on: Acinetobacter baumannii; assay: Potentiation of clarithromycin-induced antibacterial activity against Acinetobacter baumannii 4027 assessed as fold reduction in clarithromycin MIC at 7.5 uM incubated for 16 hrs by broth microdilution method
[17] = tested on: Acinetobacter baumannii; assay: Potentiation of clarithromycin-induced antibacterial activity against Acinetobacter baumannii 4025 assessed as fold reduction in clarithromycin MIC at 7.5 uM incubated for 16 hrs by broth microdilution method
[18] = tested on: Acinetobacter baumannii; assay: Antibacterial activity against Acinetobacter baumannii 4498 assessed as reduction in microbial growth incubated for 16 hrs by broth microdilution method
[19] = tested on: Acinetobacter baumannii; assay: Antibacterial activity against Acinetobacter baumannii 4991 assessed as reduction in microbial growth incubated for 16 hrs by broth microdilution method
[20] = tested on: Acinetobacter baumannii; assay: Potentiation of clarithromycin-induced antibacterial activity against Acinetobacter baumannii 4498 assessed as fold reduction in clarithromycin MIC at 7.5 uM incubated for 16 hrs by broth microdilution method
[21] = tested on: Acinetobacter baumannii; assay: Potentiation of clarithromycin-induced antibacterial activity against Acinetobacter baumannii 5001 assessed as fold reduction in clarithromycin MIC at 7.5 uM incubated for 16 hrs by broth microdilution method
[22] = tested on: Acinetobacter baumannii; assay: Potentiation of clarithromycin-induced antibacterial activity against Acinetobacter baumannii 5711 assessed as fold reduction in clarithromycin MIC at 7.5 uM incubated for 16 hrs by broth microdilution method
[23] = tested on: Acinetobacter baumannii; assay: Antibacterial activity against Acinetobacter baumannii 3785 assessed as reduction in microbial growth incubated for 16 hrs by broth microdilution method
[24] = tested on: Acinetobacter baumannii; assay: Potentiation of clarithromycin-induced antibacterial activity against Acinetobacter baumannii 4795 assessed as fold reduction in clarithromycin MIC at 7.5 uM incubated for 16 hrs by broth microdilution method
[25] = tested on: Acinetobacter baumannii; assay: Antibacterial activity against Acinetobacter baumannii 5711 assessed as reduction in microbial growth incubated for 16 hrs by broth microdilution method
[26] = tested on: Acinetobacter baumannii; assay: Antibacterial activity against Acinetobacter baumannii 4490 assessed as reduction in microbial growth incubated for 16 hrs by broth microdilution method
[27] = tested on: Acinetobacter baumannii; assay: Antibacterial activity against Acinetobacter baumannii 3927 assessed as reduction in microbial growth incubated for 16 hrs by broth microdilution method
[28] = tested on: Acinetobacter baumannii; assay: Potentiation of clarithromycin-induced antibacterial activity against Acinetobacter baumannii 5256 assessed as fold reduction in clarithromycin MIC at 7.5 uM incubated for 16 hrs by broth microdilution method
[29] = tested on: Acinetobacter baumannii; assay: Potentiation of clarithromycin-induced antibacterial activity against Acinetobacter baumannii 3806 assessed as fold reduction in clarithromycin MIC at 7.5 uM incubated for 16 hrs by broth microdilution method
[30] = tested on: Acinetobacter baumannii; assay: Potentiation of clarithromycin-induced antibacterial activity against Acinetobacter baumannii AB5075 assessed as clarithromycin MIC at 5 uM incubated for 16 hrs by broth microdilution method (reference value: […] ug/ml)
[31] = tested on: Acinetobacter baumannii; assay: Antibacterial activity against Acinetobacter baumannii 8967 assessed as reduction in microbial growth incubated for 16 hrs by broth microdilution method
[32] = tested on: Acinetobacter baumannii; assay: Antibacterial activity against Acinetobacter baumannii 3560 assessed as reduction in microbial growth incubated for 16 hrs by broth microdilution method
[33] = tested on: Acinetobacter baumannii; assay: Antibacterial activity against Acinetobacter baumannii 4026 assessed as reduction in microbial growth incubated for 16 hrs by broth microdilution method
[34] = tested on: Acinetobacter baumannii; assay: Potentiation of clarithromycin-induced antibacterial activity against Acinetobacter baumannii AB5075 assessed as clarithromycin MIC at 7.5 uM incubated for 16 hrs by broth microdilution method (reference value: […] ug/ml)
[35] = tested on: Acinetobacter baumannii; assay: Antibacterial activity against Acinetobacter baumannii 4857 assessed as reduction in microbial growth incubated for 16 hrs by broth microdilution method
[36] = tested on: Acinetobacter baumannii; assay: Antibacterial activity against Acinetobacter baumannii 4957 assessed as reduction in microbial growth incubated for 16 hrs by broth microdilution method
[37] = tested on: Acinetobacter baumannii; assay: Antibacterial activity against Acinetobacter baumannii 4027 assessed as reduction in microbial growth incubated for 16 hrs by broth microdilution method
[38] = tested on: Acinetobacter baumannii; assay: Potentiation of clarithromycin-induced antibacterial activity against Acinetobacter baumannii AB5075 assessed as clarithromycin MIC at 15 uM incubated for 16 hrs by broth microdilution method (reference value: […] ug/ml)
[39] = tested on: Acinetobacter baumannii; assay: Potentiation of clarithromycin-induced antibacterial activity against Acinetobacter baumannii 8967 assessed as fold reduction in clarithromycin MIC at 7.5 uM incubated for 16 hrs by broth microdilution method
[40] = tested on: Acinetobacter baumannii; assay: Potentiation of clarithromycin-induced antibacterial activity against Acinetobacter baumannii 4052 assessed as fold reduction in clarithromycin MIC at 7.5 uM incubated for 16 hrs by broth microdilution method

Cl.Nc1nc(-c2ccc(NC(=O)Nc3cc(Br)cc(Br)c3)cc2)c[nH]1
MIC [1]: 25 µM
MIC [2]: 25 µM
MIC [3]: 25 µM
fold change (FC) [4]: 16
fold change (FC) [5]: 16
fold change (FC) [6]: 16
fold change (FC) [7]: 16
MIC [8]: 50 µM
fold change (FC) [9]: 16
fold change (FC) [10]: 16
fold change (FC) [11]: 16
MIC [12]: 25 µM
MIC [13]: 25 µM
fold change (FC) [14]: 16
fold change (FC) [15]: 16
fold change (FC) [16]: 16
fold change (FC) [17]: 16
MIC [18]: 25 µM
MIC [19]: 25 µM
fold change (FC) [20]: 16
fold change (FC) [21]: 16
fold change (FC) [22]: 16
MIC [23]: 25 µM
fold change (FC) [24]: 16
MIC [25]: 25 µM
MIC [26]: 25 µM
MIC [27]: 25 µM
fold change (FC) [28]: 16
fold change (FC) [29]: 16
MIC [30]: 4 µg/mL
MIC [31]: 25 µM
MIC [32]: 25 µM
MIC [33]: 25 µM
MIC [34]: 0.25 µg/mL
MIC [35]: 25 µM
MIC [36]: 25 µM
MIC [37]: 25 µM
MIC [38]: 0.125 µg/mL
fold change (FC) [39]: 16
fold change (FC) [40]: 16
